Data published in patent US8940731B2, “Substituted pyridyl amide compounds as modulators of the histamine H3 receptor” (Janssen Pharmaceutica NV, priority 2006, dated 2015).
pKi: −log10 of the molar value. Where a name gives a salt, the structure may show the parent alone. Read-outs that look alike come from different tables or passages of the source.

How the values were obtained:
[1] = target: T1, human H3 receptor (Homo sapiens, UniProt Q9Y5N1); experiment: Cyclic AMP Accumulation (human H3 receptor); type: cell-based
T1 construct: expressed in transfected cells; host or cells: SK-N-MC sublines with a reporter construct
T1 sequence (Q9Y5N1 whole entry): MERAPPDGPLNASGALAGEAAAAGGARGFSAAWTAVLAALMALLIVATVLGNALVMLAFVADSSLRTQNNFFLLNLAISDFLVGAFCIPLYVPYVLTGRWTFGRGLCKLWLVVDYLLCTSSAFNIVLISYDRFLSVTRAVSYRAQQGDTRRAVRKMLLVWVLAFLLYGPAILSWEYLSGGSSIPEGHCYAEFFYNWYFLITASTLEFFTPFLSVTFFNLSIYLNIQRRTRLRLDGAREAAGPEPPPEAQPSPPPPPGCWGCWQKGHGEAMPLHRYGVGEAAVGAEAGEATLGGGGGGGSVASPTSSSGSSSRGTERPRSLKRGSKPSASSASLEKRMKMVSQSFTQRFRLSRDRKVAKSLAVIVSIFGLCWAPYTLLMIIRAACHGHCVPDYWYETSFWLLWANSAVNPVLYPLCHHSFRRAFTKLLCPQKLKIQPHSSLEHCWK
Excerpt: (§1) Sublines of SK-N-MC cells were created that expressed a reporter construct and either the human or rat H3 receptor.

[2] = target: T2, Rat H3 (Rattus norvegicus, UniProt Q9QYN8); experiment: H3 Receptor Binding (Rat); details: rat brain membranes without cerebellum, 0.8 nM N-[3H]-α-methylhistamine, 60 min at 25° C.; average of the results obtained
Description: H3 Receptor Binding (Rat)
A rat brain without cerebellum (Zivic Laboratories Inc., Pittsburgh, Pa.) was homogenized in 50 mM Tris-HCl/5 mM EDTA and centrifuged at 1,000 rpm for 5 min. The supernatant was removed and recentrifuged at 15,000 rpm for 30 min. Pellets were rehomogenized in 50 mM Tris/5 mM EDTA (pH 7.4). Membranes were incubated with 0.8 nM N-[^3H]-α-methylhistamine plus/minus test compounds for 60 min at 25° C. and harvested by rapid filtration over GF/C glass fiber filters (pretreated with 0.3% polyethylenimine) followed by four washes with buffer. Nonspecific binding was defined in the presence of 100 μM histamine.
Target sequence in this assay (Q9QYN8 1-397 isoform Q9QYN8-3): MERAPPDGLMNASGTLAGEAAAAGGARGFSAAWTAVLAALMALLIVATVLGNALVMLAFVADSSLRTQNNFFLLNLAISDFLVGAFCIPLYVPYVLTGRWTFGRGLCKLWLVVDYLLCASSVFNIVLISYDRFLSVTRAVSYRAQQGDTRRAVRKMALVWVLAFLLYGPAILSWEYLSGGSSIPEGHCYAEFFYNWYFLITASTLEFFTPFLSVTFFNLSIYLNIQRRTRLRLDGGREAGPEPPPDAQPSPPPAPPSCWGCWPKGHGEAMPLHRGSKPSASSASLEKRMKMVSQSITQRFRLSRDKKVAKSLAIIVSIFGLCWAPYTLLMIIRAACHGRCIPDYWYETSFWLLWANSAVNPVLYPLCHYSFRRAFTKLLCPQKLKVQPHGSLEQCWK

[3] = target: T2, Rat H3; experiment: cell-based
Excerpt: as §1
Target sequence in this assay (Q9QYN8 whole entry): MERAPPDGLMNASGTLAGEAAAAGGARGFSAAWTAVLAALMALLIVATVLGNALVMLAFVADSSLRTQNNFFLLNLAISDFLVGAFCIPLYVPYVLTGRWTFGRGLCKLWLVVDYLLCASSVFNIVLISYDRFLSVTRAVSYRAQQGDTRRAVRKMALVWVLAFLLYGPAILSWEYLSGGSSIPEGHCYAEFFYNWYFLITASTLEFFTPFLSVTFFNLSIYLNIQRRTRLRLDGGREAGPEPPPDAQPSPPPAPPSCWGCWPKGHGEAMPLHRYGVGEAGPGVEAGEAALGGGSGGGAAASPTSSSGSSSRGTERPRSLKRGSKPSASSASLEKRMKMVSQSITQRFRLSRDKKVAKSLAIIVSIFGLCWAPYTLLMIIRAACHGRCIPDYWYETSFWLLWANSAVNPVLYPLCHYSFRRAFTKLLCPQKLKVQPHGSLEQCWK

[4] = target: T3, cloned human H3 receptors (Homo sapiens, UniProt Q9Y5N1); experiment: H3 Receptor Binding (Human); details: cloned human H3 receptors stably expressed in SK-N-MC cells; average of the results obtained; read-out: Human H3 Ki
T3 construct: expressed in transfected cells
T3 sequence (Q9Y5N1 whole entry): as the sequence (Q9Y5N1 whole entry) above
Description: H3 Receptor Binding (Human)
Binding of compounds to the cloned human H3 receptors, stably expressed in SK-N-MC cells, was performed as described by Barbier, A. J. et al. (Br. J. Pharmacol. 2004, 143(5), 649-661).

[5] = SK-N-MC subline expressing reporter construct and human H3 receptor, average
[6] = SK-N-MC subline expressing reporter construct and rat H3 receptor, average
[7] = SK-N-MC subline expressing reporter construct and human H3 receptor, average, read-out: Human pA2 (converted)
[8] = SK-N-MC subline expressing reporter construct and rat H3 receptor, average, read-out: Rat pA2 (converted)

Row | Compound | Kb [1] [nM] | pKi [2] | Kb [3] [nM] | pKi [4] | Human pA2 [1, 5] | Rat pA2 [3, 6] | Kb [1, 7] [nM] | Kb [3, 8] [nM]
1 | O=C(c1ccc(Oc2ccc(Cl)c(Cl)c2)nc1)N1CCCN(C2CC2)CC1 [Example 9, (4-Cyclopropyl-[1,4]diazepan-1-yl)-[6-(3,4-dichloro-phenoxy)-pyridin-3-yl]-methanone] | 8.71 | 6.89 | 44.7 | 7.96 | – | – | – | –
2 | N#Cc1cccc(Oc2ccc(C(=O)N3CCCN(C4CC4)CC3)cn2)c1 [Example 11, 3-[5-(4-Cyclopropyl-[1,4]diazepane-1-carbonyl)-pyridin-2-yloxy]-benzonitrile] | – | 6.35 | – | 8.15 | 8.53 | – | – | –
3 | Cc1cc(Oc2ccc(C(=O)N3CCCN(C4CC4)CC3)cn2)ccc1Cl [Example 12, [6-(4-Chloro-3-methyl-phenoxy)-pyridin-3-yl]-(4-cyclopropyl-[1,4]diazepan-1-yl)-methanone] | 5.5 | 7.29 | – | 8.30 | – | – | – | –
4 | O=C(c1ccc(Oc2ccc(Cl)c(Cl)c2)nc1)N1CCCN(C2CCC2)CC1 [Example 14, (4-Cyclobutyl-[1,4]diazepan-1-yl)-[6-(3,4-dichloro-phenoxy)-pyridin-3-yl]-methanone] | – | 8.00 | – | 8.70 | 9.26 | 8.16 | – | –
5 | O=C(c1ccc(Oc2cccc(Cl)c2)nc1)N1CCCN(C2CCC2)CC1 [Example 24, [6-(3-Chloro-phenoxy)-pyridin-3-yl]-(4-cyclobutyl-[1,4]diazepan-1-yl)-methanone] | – | 7.82 | – | 9.00 | – | – | 0.708 | 4.37
6 | O=C(c1ccc(Oc2ccc(Cl)cc2)nc1)N1CCCN(C2CCC2)CC1 [Example 25, [6-(4-Chloro-phenoxy)-pyridin-3-yl]-(4-cyclobutyl-[1,4]diazepan-1-yl)-methanone] | – | 7.60 | – | 9.00 | 9.22 | – | – | 3.8
7 | O=C(c1ccc(Oc2ccc(F)c(F)c2)nc1)N1CCCN(C2CCC2)CC1 [Example 26, (4-Cyclobutyl-[1,4]diazepan-1-yl)-[6-(3,4-difluoro-phenoxy)-pyridin-3-yl]-methanone] | 0.229 | 7.80 | 2.14 | 9.00 | – | – | – | –
8 | O=C(c1ccc(Oc2ccccc2F)nc1)N1CCCN(C2CCC2)CC1 [Example 29, (4-Cyclobutyl-[1,4]diazepan-1-yl)-[6-(2-fluoro-phenoxy)-pyridin-3-yl]-methanone] | 0.813 | 7.70 | 3.55 | 9.00 | – | – | – | –
9 | O=C(c1ccc(Oc2ccc(F)cc2F)nc1)N1CCCN(C2CCC2)CC1 [Example 30, (4-Cyclobutyl-[1,4]diazepan-1-yl)-[6-(2,4-difluoro-phenoxy)-pyridin-3-yl]-methanone] | 0.537 | 7.59 | 4.17 | 9.00 | – | – | – | –
10 | O=C(c1ccc(Oc2ccccc2F)nc1)N1CCCN(C2CC2)CC1 [Example 31, (4-Cyclopropyl-[1,4]diazepan-1-yl)-[6-(2-fluoro-phenoxy)-pyridin-3-yl]-methanone] | 2.4 | 7.41 | 7.59 | 8.40 | – | – | – | –
11 | O=C(c1ccc(Oc2cc(F)cc(F)c2)nc1)N1CCCN(C2CCC2)CC1 [Example 36, (4-Cyclobutyl-[1,4]diazepan-1-yl)-[6-(3,5-difluoro-phenoxy)-pyridin-3-yl]-methanone] | – | 7.52 | – | 9.00 | – | – | – | –
12 | O=C(c1ccc(Oc2cccc(F)c2)nc1)N1CCCN(C2CC2)CC1 [Example 37, (4-Cyclopropyl-[1,4]diazepan-1-yl)-[6-(3-fluoro-phenoxy)-pyridin-3-yl]-methanone] | – | 6.89 | – | 8.30 | – | – | – | –
13 | O=C(c1ccc(Oc2cccc(F)c2)nc1)N1CCCN(C2CCC2)CC1 [Example 39, (4-Cyclobutyl-[1,4]diazepan-1-yl)-[6-(3-fluoro-phenoxy)-pyridin-3-yl]-methanone] | – | 7.68 | – | 9.00 | 9.40 | 8.38 | – | –
14 | CSc1ccc(Oc2ccc(C(=O)N3CCCN(C4CC4)CC3)cn2)cc1C [Example 41, (4-Cyclopropyl-[1,4]diazepan-1-yl)-[6-(3-methyl-4-methylsulfanyl-phenoxy)-pyridin-3-yl]-methanone] | – | 7.12 | – | 8.40 | – | – | – | –
15 | O=C(c1ccc(Oc2ccc(Cl)c(Cl)c2)cn1)N1CCCN(C2CC2)CC1 [Example 52, (4-Cyclopropyl-[1,4]diazepan-1-yl)-[5-(3,4-dichloro-phenoxy)-pyridin-2-yl]-methanone trifluoroacetic acid salt] | – | 6.96 | – | 8.40 | – | – | – | –
16 | Cc1cc(Oc2ccc(C(=O)N3CCCN(C4CC4)CC3)nc2C#N)ccc1Cl [Example 57, 3-(4-Chloro-3-methyl-phenoxy)-6-(4-cyclopropyl-[1,4]diazepane-1-carbonyl)-pyridine-2-carbonitrile] | – | 6.88 | – | 8.52 | – | – | – | –
17 | N#Cc1nc(C(=O)N2CCCN(C3CC3)CC2)ccc1Oc1ccc(F)cc1 [Example 59, 6-(4-Cyclopropyl-[1,4]diazepane-1-carbonyl)-3-(4-fluoro-phenoxy)-pyridine-2-carbonitrile] | 3.09 | – | 26.9 | 8.52 | – | – | – | –
18 | N#Cc1nc(C(=O)N2CCCN(C3CC3)CC2)ccc1Oc1ccccc1F [Example 61, 6-(4-Cyclopropyl-[1,4]diazepane-1-carbonyl)-3-(2-fluoro-phenoxy)-pyridine-2-carbonitrile] | 3.63 | – | 32.4 | 8.22 | – | – | – | –
19 | O=C(c1ccc(Oc2ccccc2)nc1)N1CCCN(C2CCCC2)CC1 [Example 65, (4-Cyclopentyl-[1,4]diazepan-1-yl)-(6-phenoxy-pyridin-3-yl)-methanone] | 1.15 | – | 0.661 | 8.70 | – | – | – | –
20 | O=C(c1ccc(Oc2ccc(Cl)c(Cl)c2)nc1)N1CCCN(C2CCCC2)CC1 [Example 66, (4-Cyclopentyl-[1,4]diazepan-1-yl)-[6-(3,4-dichloro-phenoxy)-pyridin-3-yl]-methanone] | 1.12 | – | 11.5 | 9.00 | – | – | – | –
21 | O=C(c1ccc(Oc2ccc(F)cc2)nc1)N1CCCN(C2CCCC2)CC1 [Example 67, (4-Cyclopentyl-[1,4]diazepan-1-yl)-[6-(4-fluoro-phenoxy)-pyridin-3-yl]-methanone] | 1.35 | – | 6.76 | 8.70 | – | – | – | –
22 | O=C(c1ccc(Oc2ccc(Cl)cc2)cn1)N1CCCN(C2CCC2)CC1 [Example 68, [5-(4-Chloro-phenoxy)-pyridin-2-yl]-(4-cyclobutyl-[1,4]diazepan-1-yl)-methanone trifluoroacetic acid salt] | – | – | – | 8.70 | 8.61 | – | – | 15.8
23 | O=C(c1ccc(Oc2cccc(Cl)c2)cn1)N1CCCN(C2CCC2)CC1 [Example 70, [5-(3-Chloro-phenoxy)-pyridin-2-yl]-(4-cyclobutyl-[1,4]diazepan-1-yl)-methanone trifluoroacetic acid salt] | – | – | – | 8.70 | 8.72 | – | – | 19.1
24 | O=C(c1ccc(Oc2ccccc2Cl)nc1)N1CCCN(C2CCC2)CC1 [Example 73, [6-(2-Chloro-phenoxy)-Pyridin-3-yl]-(4-cyclobutyl-[1,4]diazepan-1-yl)-methanone] | – | – | – | 8.40 | – | – | 0.309 | 1.2
25 | O=C(c1ccc(Oc2ccc(F)cc2)nc1)N1CCN(C2CCCC2)CC1 [Example 74, (4-Cyclopentyl-piperazin-1-yl)-[6-(4-fluoro-phenoxy)-pyridin-3-yl]-methanone] | 8.91 | – | 36.3 | 8.15 | – | – | – | –
26 | O=C(c1ccc(Sc2ccc(F)cc2)nc1)N1CCCN(C2CCC2)CC1 [Example 83, (4-Cyclobutyl-[1,4]diazepan-1-yl)-[6-(4-fluoro-phenylsulfanyl)-pyridin-3-yl]-methanone] | – | – | – | – | 9.48 | – | – | 3.24
27 | O=C(c1ccc(Sc2ccc(F)cc2)cn1)N1CCCN(C2CCC2)CC1 [Example 84, (4-Cyclobutyl-[1,4]diazepan-1-yl)-[5-(4-fluoro-phenylsulfanyl)-pyridin-2-yl]-methanone trifluoroacetic acid salt] | – | 7.43 | – | 8.70 | – | – | – | –
28 | O=C(c1ccc(Sc2ccccc2)nc1)N1CCCN(C2CCC2)CC1 [Example 86, (4-Cyclobutyl-[1,4]diazepan-1-yl)-(6-phenylsulfanyl-pyridin-3-yl)-methanone] | – | – | – | 9.00 | 9.48 | – | – | 3.16
29 | Cc1ccc(Oc2ccc(C(=O)N3CCCN(C4CCC4)CC3)cn2)cc1 [Example 104, (4-Cyclobutyl-[1,4]diazepan-1-yl)-(6-p-tolyloxy-pyridin-3-yl)-methanone] | 0.724 | – | 4.27 | 8.70 | – | – | – | –
30 | CSc1ccc(Oc2ccc(C(=O)N3CCCN(C4CCC4)CC3)cn2)cc1 [Example 105, (4-Cyclobutyl-[1,4]diazepan-1-yl)-[6-(4-methylsulfanyl-phenoxy)-pyridin-3-yl]-methanone] | – | 7.49 | – | 7.96 | – | – | – | –
